# How the values were obtained:
# [1] = tested on: BGC-823; assay: Cytotoxicity in human BGC823 cells assessed as reduction in cell viability incubated for 72 hrs by MTT assay; type: functional, cell-based; conditions: BGC-823, 72 h
# [2] = tested on: BV-2; assay: Antiinflammatory activity in mouse BV2 cells assessed as inhibition of LPS-induced nitric oxide production pretreated for 24 hrs followed by LPS-stimulation for 24 hrs by Griess assay; type: functional, cell-based
# [3] = target: T1, Tyrosine-protein phosphatase non-receptor type 1 (Homo sapiens) (UniProt P18031); assay: Inhibition of recombinant human GST-tagged PTP1B expressed in expressed in Escherichia coli BL21 cells at 10 uM pre-incubated for 5 mins before pNPP substrate addition and further incubated for 30 mins relative to untreated control
# T1 sequence (whole entry): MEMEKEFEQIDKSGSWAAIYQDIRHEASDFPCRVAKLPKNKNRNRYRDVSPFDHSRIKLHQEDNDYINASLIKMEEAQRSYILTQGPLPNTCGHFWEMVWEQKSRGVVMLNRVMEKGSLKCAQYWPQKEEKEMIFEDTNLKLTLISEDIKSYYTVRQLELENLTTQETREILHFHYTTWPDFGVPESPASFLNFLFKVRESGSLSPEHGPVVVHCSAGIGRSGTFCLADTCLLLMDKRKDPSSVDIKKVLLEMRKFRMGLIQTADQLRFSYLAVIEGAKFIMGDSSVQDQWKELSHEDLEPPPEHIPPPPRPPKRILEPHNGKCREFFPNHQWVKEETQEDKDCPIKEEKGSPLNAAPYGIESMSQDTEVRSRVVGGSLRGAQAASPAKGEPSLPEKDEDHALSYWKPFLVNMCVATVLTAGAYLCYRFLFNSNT
# [4] = tested on: MCF7; assay: Cytotoxicity in human MCF7 cells assessed as reduction in cell viability incubated for 72 hrs by MTT assay; type: functional, cell-based; conditions: MCF7, 72 h
# [5] = tested on: A549; assay: Cytotoxicity in human A549 cells assessed as reduction in cell viability incubated for 72 hrs by MTT assay; type: functional, cell-based; conditions: A549, 72 h
# [6] = tested on: HepG2; assay: Cytotoxicity in human HepG2 cells assessed as reduction in cell viability incubated for 72 hrs by MTT assay; type: functional, cell-based; conditions: HepG2, 72 h
# [7] = tested on: HCT-116; assay: Cytotoxicity in human HCT116 cells assessed as reduction in cell viability incubated for 72 hrs by MTT assay; type: functional, cell-based; conditions: HCT-116, 72 h
Compound,IC50 [1] [µM],IC50 [2] [µM],inhibition [3] [%],IC50 [4] [µM],IC50 [5] [µM],IC50 [6] [µM],IC50 [7] [µM]
C=C(C)[C@H]1CC[C@@](C)(O)[C@@H]1/C=C/C(C)=C/[C@@H]1C[C@@]2([C@H](OC)O1)[C@H](CCCO)/C(=C(/C)C=O)CC[C@]2(C)O,> 10,> 10,-0.5,> 10,> 10,> 10,> 10
C=C(C)[C@H]1CC[C@@](C)(O)[C@@H]1/C=C/C(C)=C/[C@@H]1C[C@@]23[C@H](OCCC[C@@H]2/C(=C(/C)C=O)CC[C@]3(C)O)O1,> 10,> 10,24.8,> 10,> 10,> 10,> 10
C=C(C)[C@@H]1CC[C@](C)(O)[C@H]1/C=C/C(C)=C/[C@@H]1C[C@@]2([C@H](OC)O1)[C@H](CCCO)/C(=C(\C)C=O)CC[C@]2(C)O,> 10,> 10,-1.8,> 10,> 10,> 10,> 10
C=C(C)[C@@H]1CC[C@](C)(O)[C@H]1/C=C/C(C)=C/[C@@H]1C[C@@]23[C@H](OCCC[C@@H]2/C(=C(\C)C=O)CC[C@]3(C)O)O1,> 10,> 10,33.4,> 10,> 10,> 10,> 10
C=C(C)[C@@H]1CC[C@](C)(O)[C@H]1/C=C/C(C)=C/[C@@H]1C[C@@]23[C@H](OCCC[C@@H]2/C(=C(/C)C=O)CC[C@]3(C)O)O1,> 10,> 10,16.5,> 10,> 10,> 10,> 10
C=C(C)[C@@H]1CC[C@](C)(O)[C@H]1/C=C/C(C)=C/[C@@H]1C[C@@]2([C@H](OC)O1)[C@H](CCCO)/C(=C(/C)C=O)CC[C@]2(C)O,> 10,> 10,23.5,> 10,> 10,> 10,> 10
C=C(C)[C@H]1CC[C@@](C)(O)[C@@H]1/C=C/C(C)=C/[C@@H]1C[C@@]2([C@H](OC)O1)[C@H](CCCO)/C(=C(\C)C=O)CC[C@]2(C)O,> 10,> 10,15.2,> 10,> 10,> 10,> 10
C=C(C)[C@H]1CC[C@@](C)(O)[C@@H]1/C=C/C(C)=C/[C@@H]1C[C@@]23[C@H](OCCC[C@@H]2/C(=C(\C)C=O)CC[C@]3(C)O)O1,> 10,> 10,26.4,> 10,> 10,> 10,> 10
C=C(C)[C@H]1CC[C@@](C)(O)[C@@H]1/C=C/C(C)=C/[C@@H]1C[C@@]2([C@H](OCC)O1)[C@H](CCCO)/C(=C(\C)C=O)CC[C@]2(C)O,> 10,> 10,32.9,> 10,> 10,> 10,> 10
